The values that follow come from patent publication US8563553B2, “Compounds and compositions as protein kinase inhibitors” (Novartis AG, priority 2009, dated 2013).

Sequence of b-Raf(V600E) (P15056 whole entry V600E): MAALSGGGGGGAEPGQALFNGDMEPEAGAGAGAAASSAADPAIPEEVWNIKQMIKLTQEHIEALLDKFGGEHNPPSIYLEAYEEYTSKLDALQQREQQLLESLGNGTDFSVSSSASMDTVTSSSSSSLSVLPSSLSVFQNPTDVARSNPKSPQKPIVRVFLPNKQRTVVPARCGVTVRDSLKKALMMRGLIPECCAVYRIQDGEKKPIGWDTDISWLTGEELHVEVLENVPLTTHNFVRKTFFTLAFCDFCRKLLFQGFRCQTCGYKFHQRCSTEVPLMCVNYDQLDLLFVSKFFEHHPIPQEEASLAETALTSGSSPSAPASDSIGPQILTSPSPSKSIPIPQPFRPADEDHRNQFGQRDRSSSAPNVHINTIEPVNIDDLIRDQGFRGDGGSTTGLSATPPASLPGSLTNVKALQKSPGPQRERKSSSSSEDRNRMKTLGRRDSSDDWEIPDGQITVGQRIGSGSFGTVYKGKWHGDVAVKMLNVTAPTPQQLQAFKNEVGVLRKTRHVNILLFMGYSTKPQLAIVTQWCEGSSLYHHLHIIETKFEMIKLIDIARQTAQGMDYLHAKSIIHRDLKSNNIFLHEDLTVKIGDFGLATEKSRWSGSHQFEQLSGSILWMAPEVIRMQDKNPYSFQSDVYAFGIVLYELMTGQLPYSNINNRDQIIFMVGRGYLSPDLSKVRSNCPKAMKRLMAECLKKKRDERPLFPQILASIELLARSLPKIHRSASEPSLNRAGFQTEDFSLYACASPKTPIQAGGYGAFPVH

The test addresses b-Raf(V600E) (Homo sapiens (Human), UniProt P15056, V600E). In words: Raf/Mek Amplified Luminescence Proximity Homogeneous Assay (Alpha Screen). The test is classed as biochemical. The settings on record: b-Raf(V600E) approximately 4 pM; biotinylated Mek, kinase dead approximately 10 nM; ATP 10 μM; pre-incubation 60 minutes; reaction 3 hours at room temperature; read-out: mut-B-RAF IC50. Here is the method: Raf/Mek Amplified Luminescence Proximity Homogeneous Assay
Assay buffer: 50 mM Tris, pH 7.5, 15 mM MgCl2, 0.01% Bovine Serum Albumin (BSA), 1 mM dithiothreitol (DTT) Stop buffer: 60 mM ethylenediaminetetraacetic acid (EDTA), 0.01% Tween® 20 Bead buffer: 50 mM Tris, pH 7.5, 0.01% Tween® 20 […]
biotinylated Mek, kinase dead
Alpha Screen detection kit (available from PerkinElmer™, #6760617R)
Anti phospho-MEK1/2 (available from Cell Signaling Technology, Inc. #9121) 384 well assay plates (White Greiner® plates, #781207) […]
biotinylated Mek, Kinase dead approximately 10 nM
Pre-incubation time with compounds 60 minutes at room temperature
Reaction time 1 or 3 hours at room temperature
Raf and biotinylated Mek, kinase dead, were combined at 2× final concentrations in assay buffer (50 mM Tris, pH 7.5, 15 mM MgCl2, 0.01% BSA and 1 mM DTT) and dispensed 10 μl per well in assay plates (Greiner white 384 well assay plates #781207) containing 0.5 μl of 40× of a raf kinase inhibitor test compound diluted in 100% DMSO. The plate was incubated for 60 minutes at room temperature.
The Raf kinase activity reaction was started by the addition of 10 μL per well of 2×ATP diluted in assay buffer. […] Phosphorylated product was measured using a rabbit anti-p-MEK (Cell Signaling, #9121) antibody and the Alpha Screen IgG (ProteinA) detection Kit (PerkinElmer #6760617R), by the addition of 30 μL to the well of a mixture of the antibody (1:2000 dilution) and detection beads (1:2000 dilution of both beads) in bead buffer (50 mM Tris, pH 7.5, 0.01% Tween20). The additions were carried out under dark conditions to protect the detection beads from light. A lid was placed on top of the plate and incubated for 1 hour at room temperature, then the luminescence was read on a PerkinElmer Envision instrument. The concentration of each compound for 50% inhibition (IC50) was calculated by non-linear regression using XL Fit data analysis software.
Broadly, the IC50 is the concentration needed to halve the response being measured. As to `COC(=O)N[C@@H](C)CNc1nccc(-c2[nH]c(C3CC3)nc2-c2cc(C)cc(NS(C)(=O)=O)c2Cl)n1` [Example 1AB, (S)-Methyl 1-(4-(4-(2-chloro-5-methyl-3-(methylsulfonamido)phenyl)-2-cyclopropyl-1H-imidazol-5-yl)pyrimidin-2-ylamino)propan-2-ylcarbamate], the half-maximal inhibitory concentration (IC50) was determined as 1.1 nM.

In the case of `CCCS(=O)(=O)Nc1cc(F)cc(-c2nc(C3CC3)[nH]c2-c2ccnc(NC(C)C)n2)c1Cl` [Example 1AU, N-(2-Chloro-3-(2-cyclopropyl-5-(2-(isopropylamino)pyrimidin-4-yl)-1H-imidazol-4-yl)-5-fluorophenyl)propane-1-sulfonamide], the IC50 was determined as 5 nM.

`CCS(=O)(=O)Nc1cc(Cl)cc(-c2nc(C(C)(C)C)[nH]c2-c2ccnc(NC[C@H](C)NC(=O)OC)n2)c1` [Example 1I, (S)-Methyl 1-(4-(2-tert-butyl-4-(3-chloro-5-(ethylsulfonamido)phenyl)-1H-imidazol-5-yl)pyrimidin-2-ylamino)propan-2-ylcarbamate]: the 50% inhibitory concentration (IC50) came out at 0.1 nM.

Consider `COC(=O)N[C@@H](C)CNc1nccc(-c2[nH]c(C3CC3)nc2-c2cccc(NS(C)(=O)=O)c2F)n1` [Example 1U, (S)-Methyl 1-(4-(2-cyclopropyl-4-(2-fluoro-3-(methylsulfonamido)phenyl)-1H-imidazol-5-yl)pyrimidin-2-ylamino)propan-2-ylcarbamate], for which the concentration for half-maximal inhibition (IC50) turned out to be 0.55 nM.

With `CCNc1nccc(-c2[nH]c(C3CC3)nc2-c2cc(F)cc(NS(C)(=O)=O)c2Cl)n1` [Example 1AQ, N-(2-Chloro-3-(2-cyclopropyl-5-(2-(ethylamino)pyrimidin-4-yl)-1H-imidazol-4-yl)-5-fluorophenyl)methanesulfonamide], the IC50 came out at 11 nM.

Consider `CC(C)(C)c1nc(-c2cccc(NS(=O)(=O)c3c(F)cccc3F)c2Cl)c(-c2ccnc(N)n2)[nH]1` [Example 1BK, N-(3-(5-(2-Aminopyrimidin-4-yl)-2-tert-butyl-1H-imidazol-4-yl)-2-chlorophenyl)-2,6-difluorobenzenesulfonamide], for which the IC50 turned out to be 0.22 nM.

As for `COC(=O)N[C@@H](C)CNc1nccc(-c2[nH]c(C3CC3)nc2-c2cc(F)cc(NS(C)(=O)=O)c2Cl)n1` [Example 5A, (S)-methyl 1-(4-(4-(2-chloro-5-fluoro-3-(methylsulfonamido)phenyl)-2-cyclopropyl-1H-imidazol-5-yl)pyrimidin-2-ylamino)propan-2-ylcarbamate], the IC50 turned out to be 0.4 nM.

For `COC(=O)N[C@@H](C)CNc1nccc(-c2[nH]c(C(C)(C)C)nc2-c2cc(Cl)cc(NS(=O)(=O)CC(C)C)c2)n1` [Example 1G, (S)-methyl 1-(4-(2-tert-butyl-4-(3-chloro-5-(2-methylpropylsulfonamido)phenyl)-1H-imidazol-5-yl)pyrimidin-2-ylamino)propan-2-ylcarbamate], the IC50 is 0.3 nM.

On to `COC(=O)N[C@@H](C)CNc1nccc(-c2[nH]c(C(C)(C)C)nc2-c2cc(NS(=O)(=O)C(C)C)c(C)c(OC)c2)n1` [Example 1K, (S)-Methyl 1-(4-(2-tert-butyl-4-(3-methoxy-4-methyl-5-(1-methylethylsulfonamido)phenyl)-1H-imidazol-5-yl)pyrimidin-2-ylamino)propan-2-ylcarbamate], for which the IC50 amounted to 189 nM.

In the case of `CCS(=O)(=O)Nc1cc(Cl)cc(-c2nc(C(C)(C)C)[nH]c2-c2ccnc(NC[C@H](C)NC(=O)OC)n2)c1F` [Example 1AJ, (S)-Methyl 1-(4-(2-tert-butyl-4-(5-chloro-3-(ethylsulfonamido)-2-fluorophenyl)-1H-imidazol-5-yl)pyrimidin-2-ylamino)propan-2-ylcarbamate], the concentration for half-maximal inhibition (IC50) came to 0.46 nM.

For `CC1(c2nc(-c3cc(F)cc(NS(C)(=O)=O)c3Cl)c(-c3ccnc(NCCC#N)n3)[nH]2)CC1` [Example 1AY, N-(2-Chloro-3-(5-(2-(2-cyanoethylamino)pyrimidin-4-yl)-2-(1-methylcyclopropyl)-1H-imidazol-4-yl)-5-fluorophenyl)methanesulfonamide], the IC50 came out at 0.23 nM.

For `CCCS(=O)(=O)Nc1cc(Cl)cc(-c2[nH]c(C(C)(C)C)nc2-c2ccnc(NC[C@H](C)NC(=O)OC)n2)c1F` [Example 4F, (S)-Methyl 1-(4-(2-tert-butyl-5-(5-chloro-2-fluoro-3-(propylsulfonamido)phenyl)-1H-imidazol-4-yl)pyrimidin-2-ylamino)propan-2-ylcarbamate], the concentration for half-maximal inhibition (IC50) was determined as 0.53 nM.

In the case of `COC(=O)N[C@@H](C)CNc1nccc(-c2[nH]c(C3CC3)nc2-c2cc(F)cc(NS(=O)(=O)c3c(F)cccc3F)c2Cl)n1` [Example 1BI, (S)-Methyl 1-(4-(4-(2-chloro-3-(2,6-difluorophenylsulfonamido)-5-fluorophenyl)-2-cyclopropyl-1H-imidazol-5-yl)pyrimidin-2-ylamino)propan-2-ylcarbamate], the half-maximal inhibitory concentration (IC50) was found to be 0.1 nM.

Take `COC(=O)N[C@@H](C)CNc1nccc(-c2[nH]c(C(C)(C)C)nc2-c2cc(Cl)cc(NS(=O)(=O)C3CC3)c2)n1` [Example 1F, (S)-methyl 1-(4-(2-tert-butyl-4-(3-chloro-5-(cyclopropanesulfonamido)phenyl)-1H-imidazol-5-yl)pyrimidin-2-ylamino)propan-2-ylcarbamate]: the half-maximal inhibitory concentration (IC50) was determined as 0.1 nM.

Take `COC(=O)N[C@H](C)CNc1nccc(-c2[nH]c(C3CC3)nc2-c2cc(F)cc(NS(C)(=O)=O)c2Cl)n1` [Example 1AV, (R)-Methyl 1-(4-(4-(2-chloro-5-fluoro-3-(methylsulfonamido)phenyl)-2-cyclopropyl-1H-imidazol-5-yl)pyrimidin-2-ylamino)propan-2-ylcarbamate]: the IC50 was determined as 11 nM.

As to `COC(=O)N[C@@H](C)CNc1nccc(-c2[nH]c(C(C)(C)C)nc2-c2cccc(NS(C)(=O)=O)c2)n1` [Example 1R, (S)-Methyl 1-(4-(2-tert-butyl-4-(3-(methylsulfonamido)phenyl)-1H-imidazol-5-yl)pyrimidin-2-ylamino)propan-2-ylcarbamate], the concentration for half-maximal inhibition (IC50) amounted to 34.5 nM.

Consider `COC(=O)N[C@@H](C)CNc1nccc(-c2[nH]c(C(C)(C)C)nc2-c2cc(C)cc(NS(=O)(=O)C(C)C)c2)n1` [Example 1Q, (S)-Methyl 1-(4-(2-tert-butyl-4-(3-methyl-5-(1-methylethylsulfonamido)phenyl)-1H-imidazol-5-yl)pyrimidin-2-ylamino)propan-2-ylcarbamate], for which the 50% inhibitory concentration (IC50) was found to be 3.12 nM.

Consider `CS(=O)(=O)Nc1cccc(-c2nc(C3CC3)[nH]c2-c2ccnc(NCC3(C#N)CC3)n2)c1Cl` [Example 2G, N-(2-Chloro-3-(5-(2-((1-cyanocyclopropyl)methylamino)pyrimidin-4-yl)-2-cyclopropyl-1H-imidazol-4-yl)phenyl)methanesulfonamide], for which the IC50 was determined as 35 nM.

As to `CC(C#N)CNc1nccc(-c2[nH]c(C3CC3)nc2-c2cccc(NS(C)(=O)=O)c2Cl)n1` (stereo not drawn) [Example 1AK, N-(2-Chloro-3-(5-(2-(2-cyanopropylamino)pyrimidin-4-yl)-2-cyclopropyl-1H-imidazol-4-yl)phenyl)methanesulfonamide], the 50% inhibitory concentration (IC50) amounted to 11 nM.

As for `CS(=O)(=O)Nc1cc(F)cc(-c2nc(C3CC3)[nH]c2-c2ccnc(N)n2)c1Cl` [Example 1BQ, N-(3-(5-(2-Aminopyrimidin-4-yl)-2-cyclopropyl-1H-imidazol-4-yl)-2-chloro-5-fluorophenyl)methanesulfonamide], the half-inhibitory concentration (IC50) is 12 nM.

On to `COC(=O)N[C@@H](C)CNc1nccc(-c2[nH]c(C(C)(C)C)nc2-c2cc(Cl)cc(NS(=O)(=O)C(C)C)c2)n1` [Example 1J, (S)-Methyl 1-(4-(2-tert-butyl-4-(3-chloro-5-(1-methylethylsulfonamido)phenyl)-1H-imidazol-5-yl)pyrimidin-2-ylamino)propan-2-ylcarbamate], for which the IC50 was 1.35 nM.

On to `COC(=O)N[C@@H](C)CNc1nccc(-c2nc(C3(C)CC3)[nH]c2-c2cc(C)cc(NS(C)(=O)=O)c2F)n1` [Example 1AM, (S)-Methyl 1-(4-(5-(2-fluoro-5-methyl-3-(methylsulfonamido)phenyl)-2-(1-methylcyclopropyl)-1H-imidazol-4-yl)pyrimidin-2-ylamino)propan-2-ylcarbamate], for which the IC50 amounted to 1 nM.

In the case of `CCCS(=O)(=O)Nc1cc(F)cc(-c2nc(C3CC3)[nH]c2-c2ccnc(NC)n2)c1Cl` [Example 1BX, N-(2-Chloro-3-(2-cyclopropyl-5-(2-(methylamino)pyrimidin-4-yl)-1H-imidazol-4-yl)-5-fluorophenyl)propane-1-sulfonamide], the concentration for half-maximal inhibition (IC50) amounted to 0.11 nM.

For the molecule `CS(=O)(=O)Nc1cccc(-c2nc(C3CC3)[nH]c2-c2ccnc(NCCC#N)n2)c1F` [Example 2E, N-(3-(5-(2-(2-Cyanoethylamino)pyrimidin-4-yl)-2-cyclopropyl-1H-imidazol-4-yl)-2-fluorophenyl)methanesulfonamide], the 50% inhibitory concentration (IC50) was found to be 4 nM.
